From PubChem BioAssay AID651630 (Sanford-Burnham Center for Chemical Genomics, 2012)
Active and inactive are the calls of the source.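 The calls were made as follows: active = lipid-stain IC50 at or below a set limit, with nuclear-stain toxicity IC50 at least five times higher; inactive = the rest.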

Experiments:
DAPI = test: TAG lipid buildup inhibition with viability readout – cell-based, panel, Nile Red and DAPI fluorescence, H9c2, dose response (AID 651630); details: H9c2 cells, DAPI nuclear fluorescence (cytotoxicity counter-readout), oleic acid;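 also: cells exposed to compound overnight before fixation and staining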
TAG = test: as above; details: H9c2 cells, Nile Red TAG fluorescence, oleic acid

| SMILES | IC50 cytotoxicity (DAPI nuclear signal decrease) (DAPI; run 1) | IC50 cytotoxicity (DAPI nuclear signal decrease) (DAPI; run 2) | IC50 (TAG; mean of runs) | IC50 (TAG; run 1) | IC50 (TAG; run 2) | IC50 cytotoxicity (DAPI nuclear signal decrease) (DAPI; mean of runs) |
| --- | --- | --- | --- | --- | --- | --- |
| COC(=O)[C@@]1(Cc2ccc(OC)cc2)[C@@H]2C(=CC(=O)[C@H]2CC(=O)C(=O)N2CCCC2)CN1C(=O)c1ccccc1 | 21 µM | > 25 µM | > 25 µM (inactive) | > 25 µM | > 25 µM |  |
| CCCc1[nH]n(-c2ccc([N+](=O)[O-])cc2)c(=O)c1C=NCCc1c[nH]c2ccccc12 | > 25 µM | > 25 µM | 11.9 µM | 10.3 µM | 13.6 µM | > 25 µM (inactive) |
| Cc1ccc2c(c1)N(C(=O)CCC(=O)NCCCN1CCC(Cc3ccccc3)CC1)CCO2 | 20.2 µM | 24.3 µM | 18.7 µM (inactive) | 19.5 µM | 17.9 µM | 22.3 µM (inactive) |
| COC(=O)C1=C(c2ccc(OCc3ccccc3)cc2)C[C@@H]2CC[C@H]1N2C(=O)NCc1ccc(C(C)(C)C)cc1 | > 25 µM | > 25 µM | 16.7 µM (inactive) | 14.2 µM | 19.1 µM | > 25 µM (inactive) |
| CCn1ncc(/C=N/N=C2\CCC3C4CCc5cc(O)ccc5C4CCC23C)c1C (stereo not given) | > 25 µM | > 25 µM | > 25 µM (inactive) | > 25 µM | > 25 µM | > 25 µM (inactive) |
| COC(=O)[C@]1(CC(C)C)N[C@H](c2ccc(-c3ccc(F)cc3)cc2)[C@@H]2C(=O)N(C)C(=O)[C@@H]21 | > 25 µM | > 25 µM | 14.9 µM | 14.6 µM | 15.1 µM | > 25 µM (inactive) |
| CSc1nc(N(C)NC(=O)c2ccc(Cl)cc2)c2ccccc2n1 | > 25 µM | > 25 µM | > 25 µM (inactive) | > 25 µM | > 25 µM | > 25 µM (inactive) |
| Cc1ccc(-n2cc(CNCCCn3cccn3)c(-c3cccc(C)c3)n2)cc1 | > 25 µM | > 25 µM | > 25 µM (inactive) | > 25 µM | > 25 µM | > 25 µM (inactive) |
| CC1(C(=O)Nc2ccc3c(c2)OCO3)Cc2c(-c3cccc(C(N)=O)c3)ccnc2O1 (stereo not given) | > 25 µM | > 25 µM |  | > 25 µM | 19.1 µM | > 25 µM (inactive) |
| CCC1(O)CC2CN(CCc3c([nH]c4ccccc34)C(C(=O)OC)(c3cc4c(cc3OC)N(C=O)C3C(O)(C(=O)OC)C(OC(C)=O)C5(CC)C=CCN6CCC43C65)C2)C1 (stereo not given) | > 25 µM | > 25 µM |  | < 0.78 µM | > 25 µM | > 25 µM (inactive) |
| CN(C)CCNC(=O)c1cccc2ccc(-c3ccc(-c4ccccc4)cc3)nc12 | > 25 µM | > 25 µM | 12.5 µM | 10.6 µM | 14.4 µM | > 25 µM (inactive) |
| Cc1cc(NC(=O)c2sccc2C)n(-c2nc3ccccc3[nH]2)n1 | > 25 µM | > 25 µM | 20.4 µM (inactive) | 19.9 µM | 20.9 µM | > 25 µM (inactive) |
| COc1ccc(-c2ccc3[nH]c4c(c3c2)CCN2C[C@@H]([C@H](C)OC(=O)Nc3cc(Cl)cc(Cl)c3)[C@@H](N(C)C(=O)Nc3cc(Cl)cc(Cl)c3)C[C@@H]42)cc1 | > 25 µM | > 25 µM | 11.6 µM | 9.42 µM | 13.9 µM | > 25 µM (inactive) |
| OCCCn1c(C2CCCN2c2nc(-c3ccc(F)cc3)cs2)nc2cc(C(F)(F)F)ccc21 (stereo not given) | > 25 µM | > 25 µM | 14 µM | 14.1 µM | 13.9 µM | > 25 µM (inactive) |
| COC(=O)C1=C(c2cc3ccccc3s2)C[C@@H]2CC[C@H]1N2C(=O)N1CCOCC1 | > 25 µM | > 25 µM | > 25 µM (inactive) | > 25 µM | > 25 µM | > 25 µM (inactive) |
| CCC(=NCCc1c(C)[nH]c2ccc(OC(F)(F)F)cc12)C1=C(O)CC(c2ccccc2)CC1=O (stereo not given) | > 25 µM | > 25 µM | > 25 µM (inactive) | > 25 µM | > 25 µM | > 25 µM (inactive) |
| COc1ccc([C@H]2CC(=O)C=C(c3ccc(OC)cc3OC)C2)cc1 | > 25 µM | > 25 µM | > 25 µM (inactive) | > 25 µM | > 25 µM | > 25 µM (inactive) |

| SMILES | IC50 cytotoxicity (DAPI nuclear signal decrease) (DAPI; run 1) | IC50 cytotoxicity (DAPI nuclear signal decrease) (DAPI; run 2) | IC50 (TAG; mean of runs) | IC50 (TAG; run 1) | IC50 (TAG; run 2) | IC50 cytotoxicity (DAPI nuclear signal decrease) (DAPI; mean of runs) |
| --- | --- | --- | --- | --- | --- | --- |
| COc1ccccc1Nc1nnc(SCC(=O)Nc2nc(-c3ccc(F)cc3)cs2)s1 | > 25 µM | > 25 µM | > 25 µM (inactive) | > 25 µM | > 25 µM | > 25 µM (inactive) |
| CCN(CC)CCNc1nc(-n2nc(C)cc2C)nc2sc3c(c12)CC(C)(C)OC3 | > 25 µM | > 25 µM | 19.4 µM (inactive) | 16.3 µM | 22.6 µM | > 25 µM (inactive) |
| CCCCCCC(C)(C)c1ccc([C@@H]2C[C@H](O)CC[C@H]2CCCO)c(O)c1 | 23.7 µM | 20.2 µM | 9.3 µM | 7.71 µM | 10.9 µM | 22 µM (inactive) |
| O=C(Nc1ccccc1)c1nc[nH]c1C(=O)NCCCCCCNC(=O)c1[nH]cnc1C(=O)Nc1ccccc1 | > 25 µM | > 25 µM |  | 24.9 µM | > 25 µM | > 25 µM (inactive) |
| CCCCNc1c(-c2ccc(-c3ccc(C(C)=O)cc3)c(OC)c2)nc2cc(C)ccn12 | > 25 µM | > 25 µM |  | > 25 µM | 22.5 µM | > 25 µM (inactive) |
| COc1cccc(NC(=O)N2CCc3nc(Nc4ccc(C(C)C)cc4)ncc3C2)c1 | > 25 µM | > 25 µM | 2.73 µM | 2.94 µM | 2.52 µM |  |
| O=c1cc(-c2ccccc2)[nH]c2ccccc12 | 20.5 µM | > 25 µM | 3.61 µM | 2.45 µM | 4.77 µM |  |
| CCCc1cc(C(=O)N/N=C/c2ccc(CC)s2)c2ccccc2n1 | > 25 µM | > 25 µM | > 25 µM (inactive) | > 25 µM | > 25 µM | > 25 µM (inactive) |
| COc1ccc2sc(-c3ccc(S(C)(=O)=O)cc3)c(C#Cc3cncn3C)c2c1 | > 25 µM | > 25 µM | > 25 µM (inactive) | > 25 µM | > 25 µM | > 25 µM (inactive) |
| COc1ccc(CC(=O)Nc2ccc(-c3nnc(-c4ccc(C)cc4)o3)cc2)cc1 | > 25 µM | > 25 µM | > 25 µM (inactive) | > 25 µM | > 25 µM | > 25 µM (inactive) |
| Cc1cccc(Nc2nc(NCc3ccco3)nc(N3CCOCC3)n2)c1 | > 25 µM | > 25 µM | > 25 µM (inactive) | > 25 µM | > 25 µM | > 25 µM (inactive) |
| COc1cc(C2C3=C(COC3=O)Oc3cc4c(cc32)OCO4)ccc1O (stereo not given) | > 25 µM | > 25 µM | 15.6 µM (inactive) | 14.9 µM | 16.2 µM | > 25 µM (inactive) |
| Cc1cc(Nc2ccc(C)c(Cl)c2)nc(N2CCOCC2)n1 | > 25 µM | > 25 µM | > 25 µM (inactive) | > 25 µM | > 25 µM | > 25 µM (inactive) |
| CCOC(=O)c1sc2nc(CSc3ccccc3)nc(NCCN(C)C)c2c1C | > 25 µM | > 25 µM | 13.7 µM | 12.4 µM | 14.9 µM | > 25 µM (inactive) |
| COc1cc(-c2cnc3c(NC=O)cc(-c4cccc(NC(C)=O)c4)cn23)cc(OC)c1OC | > 25 µM | > 25 µM | 5.44 µM | 4.6 µM | 6.28 µM | > 25 µM (inactive) |
| C#CCN(C[C@H]1[C@H](OC(=O)NCC2CCCCC2)[C@H](OC(=O)NCC2CCCCC2)C[C@@H](C(=O)OC)[C@H]1C(=O)OC)S(=O)(=O)c1ccc(C)cc1 | > 25 µM | > 25 µM | 4.93 µM | 4.53 µM | 5.33 µM |  |
